Where two headings read alike, the source gives them in different places.
Assays:
[1] = system: H3122, the non-small cell lung cancer cell line; assay: ALK inhibitory activity in H3122, SRB staining of live cells; type: cell-based; settings: Homo sapiens
Protocol: […] One day later, the compound of the present invention was added to each well at different concentrations of 10 μM, 2 μM, 0.4 μM, 0.08 μM, […], and 0.00032 μM. DMSO (dimethylsulfoxide) was added to the well that was not loaded with the compound by the same amount as the compound. Three days after the addition of the compound, DMEM was eliminated. 10% TCA (trichloroacetic acid) was added to fix the cells. The wells were washed with running water three times and the live cells were stained with SRB solution (1× sulphorodamine B). Then, OD was measured to calculate the population of the live cells. IC50 of the experimental compound used in the experiment above was calculated by using prism software (Version 5.01, Graphpad).
Table 2 presents the ALK inhibitory activity of the compounds of the examples of the present invention in H3122 containing ALK enzyme.

[2] = system: ALK L1196M cells containing ALK enzyme; assay: ALK inhibitory activity in ALK L1196M cells, SRB staining of live cells; type: cell-based
Protocol: DMSO (dimethylsulfoxide) was added to the well that was not loaded with the compound by the same amount as the compound. Three days after the addition of the compound, DMEM was eliminated. 10% TCA (trichloroacetic acid) was added to fix the cells. The wells were washed with running water three times and the live cells were stained with SRB solution (1× sulphorodamine B). Then, OD was measured to calculate the population of the live cells. IC50 of the experimental compound used in the experiment above was calculated by using prism software (Version 5.01, Graphpad). […] Table 2 presents the ALK inhibitory activity of the compounds of the examples of the present invention in ALK L1196M containing ALK enzyme.

Ba/F3 EML4-ALK L1196M = Ba/F3 EML4-ALK L1196M (Homo sapiens, UniProt Q9UM73, L1196M, cells depend on it); assay: ALK inhibitory activity in Ba/F3 EML4-ALK L1196M, SRB staining of live cells; settings: read-out: Ba/F3 EML4-ALK L1196M, three days
Chain of Ba/F3 EML4-ALK L1196M (Q9UM73 whole entry L1196M): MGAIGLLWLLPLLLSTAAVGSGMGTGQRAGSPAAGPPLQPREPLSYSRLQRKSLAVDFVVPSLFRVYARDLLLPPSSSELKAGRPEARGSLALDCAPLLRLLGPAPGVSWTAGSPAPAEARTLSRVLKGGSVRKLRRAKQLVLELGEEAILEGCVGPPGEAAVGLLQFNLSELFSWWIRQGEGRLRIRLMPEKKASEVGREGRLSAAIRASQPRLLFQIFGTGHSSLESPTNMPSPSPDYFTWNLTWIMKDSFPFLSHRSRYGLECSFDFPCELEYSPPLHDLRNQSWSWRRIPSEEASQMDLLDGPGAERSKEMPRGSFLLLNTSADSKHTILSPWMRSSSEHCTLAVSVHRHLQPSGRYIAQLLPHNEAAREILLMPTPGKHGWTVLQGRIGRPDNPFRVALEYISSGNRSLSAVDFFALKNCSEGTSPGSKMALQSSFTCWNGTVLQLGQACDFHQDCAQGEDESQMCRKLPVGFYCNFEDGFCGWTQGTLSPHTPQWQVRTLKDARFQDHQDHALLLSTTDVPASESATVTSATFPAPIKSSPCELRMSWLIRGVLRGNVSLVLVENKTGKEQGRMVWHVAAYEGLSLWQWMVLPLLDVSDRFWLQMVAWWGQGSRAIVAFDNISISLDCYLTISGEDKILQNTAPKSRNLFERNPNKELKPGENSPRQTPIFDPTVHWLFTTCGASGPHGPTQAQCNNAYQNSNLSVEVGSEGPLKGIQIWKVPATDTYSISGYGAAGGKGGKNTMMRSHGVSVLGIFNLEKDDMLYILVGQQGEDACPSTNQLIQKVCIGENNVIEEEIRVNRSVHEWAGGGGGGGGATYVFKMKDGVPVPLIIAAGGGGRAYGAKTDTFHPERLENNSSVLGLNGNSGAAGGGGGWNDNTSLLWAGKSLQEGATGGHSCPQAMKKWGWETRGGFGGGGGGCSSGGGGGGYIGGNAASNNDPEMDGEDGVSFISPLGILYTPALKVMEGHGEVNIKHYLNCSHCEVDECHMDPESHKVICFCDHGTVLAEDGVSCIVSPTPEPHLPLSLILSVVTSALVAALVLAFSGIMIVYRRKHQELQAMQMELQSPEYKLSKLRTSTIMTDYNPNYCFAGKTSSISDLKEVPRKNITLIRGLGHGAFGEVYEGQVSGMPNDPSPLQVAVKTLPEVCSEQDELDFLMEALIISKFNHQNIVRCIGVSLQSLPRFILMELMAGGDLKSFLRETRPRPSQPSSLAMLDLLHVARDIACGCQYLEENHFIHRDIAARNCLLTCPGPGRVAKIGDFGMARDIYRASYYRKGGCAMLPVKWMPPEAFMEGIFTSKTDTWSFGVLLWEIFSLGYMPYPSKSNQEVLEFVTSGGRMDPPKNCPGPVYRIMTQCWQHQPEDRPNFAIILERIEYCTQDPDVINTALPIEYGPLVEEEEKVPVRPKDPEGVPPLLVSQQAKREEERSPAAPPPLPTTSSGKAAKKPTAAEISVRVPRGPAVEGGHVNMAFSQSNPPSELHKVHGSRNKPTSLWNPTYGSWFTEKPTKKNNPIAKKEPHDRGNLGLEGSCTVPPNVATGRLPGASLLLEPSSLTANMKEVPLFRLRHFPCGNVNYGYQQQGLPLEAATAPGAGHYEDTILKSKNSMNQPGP
Protocol: Particularly, 4,000 ALK L1196M cells containing ALK enzyme were distributed in each well of a 96 well plate together with 100 μl of DMEM (Dulbecco's Modified Eagle's Medium). […] DMSO (dimethylsulfoxide) was added to the well that was not loaded with the compound by the same amount as the compound. Three days after the addition of the compound, DMEM was eliminated. 10% TCA (trichloroacetic acid) was added to fix the cells. The wells were washed with running water three times and the live cells were stained with SRB solution (1× sulphorodamine B). Then, OD was measured to calculate the population of the live cells.

ALK enzyme = ALK enzyme (Homo sapiens, UniProt Q9UM73); assay: Anaplastic lymphoma kinase (ALK) inhibitory activity, HTRF kinase assay; type: biochemical
Chain of ALK enzyme (Q9UM73 19-1620): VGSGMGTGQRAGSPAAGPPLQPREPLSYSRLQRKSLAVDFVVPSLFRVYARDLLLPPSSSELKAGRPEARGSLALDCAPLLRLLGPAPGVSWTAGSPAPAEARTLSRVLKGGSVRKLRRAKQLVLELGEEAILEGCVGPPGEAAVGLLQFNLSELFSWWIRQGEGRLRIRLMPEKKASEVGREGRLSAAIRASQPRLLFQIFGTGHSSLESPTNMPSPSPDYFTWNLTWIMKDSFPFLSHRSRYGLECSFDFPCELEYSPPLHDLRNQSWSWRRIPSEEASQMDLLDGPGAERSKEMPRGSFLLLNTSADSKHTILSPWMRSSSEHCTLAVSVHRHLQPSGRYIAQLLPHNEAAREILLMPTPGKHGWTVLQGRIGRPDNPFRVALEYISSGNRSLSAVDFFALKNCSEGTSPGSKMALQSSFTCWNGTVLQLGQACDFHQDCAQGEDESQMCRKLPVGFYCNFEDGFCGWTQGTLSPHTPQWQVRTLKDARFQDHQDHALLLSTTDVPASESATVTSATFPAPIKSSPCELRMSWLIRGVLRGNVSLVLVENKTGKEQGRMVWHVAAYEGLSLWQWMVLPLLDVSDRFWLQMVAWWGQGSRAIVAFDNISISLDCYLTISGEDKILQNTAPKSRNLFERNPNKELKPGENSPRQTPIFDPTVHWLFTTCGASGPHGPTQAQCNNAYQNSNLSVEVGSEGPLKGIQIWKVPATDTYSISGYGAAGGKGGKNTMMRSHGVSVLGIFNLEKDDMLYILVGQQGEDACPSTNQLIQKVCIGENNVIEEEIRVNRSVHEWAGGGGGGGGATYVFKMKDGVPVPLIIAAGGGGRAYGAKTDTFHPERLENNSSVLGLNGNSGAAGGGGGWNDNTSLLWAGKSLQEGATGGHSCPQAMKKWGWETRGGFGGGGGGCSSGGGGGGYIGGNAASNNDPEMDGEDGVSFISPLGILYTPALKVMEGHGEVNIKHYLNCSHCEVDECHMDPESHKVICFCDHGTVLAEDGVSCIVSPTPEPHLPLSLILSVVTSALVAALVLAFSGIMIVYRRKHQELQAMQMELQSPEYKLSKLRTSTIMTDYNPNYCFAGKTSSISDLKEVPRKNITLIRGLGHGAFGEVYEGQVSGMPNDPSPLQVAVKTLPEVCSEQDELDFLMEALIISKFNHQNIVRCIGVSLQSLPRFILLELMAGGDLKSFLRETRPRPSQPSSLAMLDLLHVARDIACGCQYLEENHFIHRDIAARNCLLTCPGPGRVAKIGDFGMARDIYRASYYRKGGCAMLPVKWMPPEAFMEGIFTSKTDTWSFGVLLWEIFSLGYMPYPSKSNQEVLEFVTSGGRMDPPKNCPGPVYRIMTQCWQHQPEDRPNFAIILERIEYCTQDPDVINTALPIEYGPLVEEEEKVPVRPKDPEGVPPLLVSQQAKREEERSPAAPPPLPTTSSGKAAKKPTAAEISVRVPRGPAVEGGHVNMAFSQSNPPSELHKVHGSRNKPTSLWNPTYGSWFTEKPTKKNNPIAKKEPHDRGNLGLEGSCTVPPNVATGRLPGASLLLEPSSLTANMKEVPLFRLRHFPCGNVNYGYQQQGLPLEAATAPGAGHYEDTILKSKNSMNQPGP

[3] = NCI-H3122, 72 h, three days, SRB, read-out: Non-small cell lung cancer cell line H3122
[4] = NCI-H3122, read-out: ALK inhibitory activity in H3122 containing ALK enzyme at the concentration range
[5] = 72 h, ALK L1196M cells, three days, SRB, read-out: ALK L1196M
[6] = read-out: anaplastic lymphoma kinase (ALK) inhibitory activity at the concentration
[7] = ALK L1196M cells, read-out: ALK inhibitory activity in ALK L1196M containing ALK enzyme at the concentration

| IC50 [1, 3] [nM] | IC50 [1, 4] [nM] | GI50 (Ba/F3 EML4-ALK L1196M) [nM] | IC50 (ALK enzyme; HTRF, read-out: ALK) [nM] | IC50 (ALK enzyme; [6]) [nM] | SMILES | IC50 [2, 5] [nM] | IC50 [2, 7] [nM] | IC50 ([2]; 72 h, read-out: ALK L1196M) [nM] |
| --- | --- | --- | --- | --- | --- | --- | --- | --- |
| 10 to 100 | 10 to 100 | – | – | – | COc1cc2c(cc1Nc1ncc(Cl)c(Nc3ccccc3S(=O)(=O)C(C)C)n1)CCC(=O)C2(C)C [Example 5, 6-(5-chloro-4-(2-(isopropylsulfonyl)phenylamino)pyrimidine-2-ylamino)-7-methoxy-1,1-dimethyl-3,4-dihydronaphthalene-2(1H)-one] | – | – | – |
| 10 to 100 | 10 to 100 | > 100 | 10 to 100 | – | COc1cc2c(cc1Nc1ncc(Cl)c(Nc3ccccc3S(=O)(=O)C(C)C)n1)CCC(O)C2(C)C (stereo not shown) [Example 24, 6-(5-chloro-4-(2-(isopropylsulfonyl)phenylamino)pyrimidine-2-ylamino)-7-methoxy-1,1-dimethyl-1,2,3,4-tetrahydronaphthalene-2-ol] | 10 to 100 | – | – |
| > 100 | – | > 100 | > 100 | – | COc1cc2c(cc1Nc1ncc(Cl)c(Nc3ccccc3S(=O)(=O)C(C)C)n1)CCC(NC(=O)C(F)(F)F)C2(C)C (stereo not shown) [Example 4, N-(6-(5-chloro-4-(2-(isopropylsulfonyl)phenylamino)pyrimidine-2-ylamino)-7-methoxy-1,1-dimethyl-1,2,3,4-tetrahydronaphthalene-2-yl)-2,2,2-trifluoroacetamide] | > 100 | – | – |
| > 100 | – | > 100 | > 100 | – | COc1cc2c(cc1Nc1ncc(Cl)c(Nc3ccccc3S(=O)(=O)C(C)C)n1)C(C)(C)/C(=N/O)CC2 [Example 16, (E)-7-(5-chloro-4-(2-(isopropylsulfonyl)phenylamino)pyrimidine-2-ylamino)-6-methoxy-1,1-dimethyl-3,4-dihydronaphthalene-2(1H)-one oxime] | > 100 | – | – |
| > 100 | – | > 100 | > 100 | – | COc1cc2c(cc1Nc1ncc(Cl)c(Nc3ccccc3S(=O)(=O)C(C)C)n1)C(C)(C)/C(=N/N1CCOCC1)CC2 [Example 17, (E)-5-chloro-N4-(2-(isopropylsulfonyl)phenyl)-N2-(3-methoxy-8,8-dimethyl-7-(morpholinoimino)-5,6,7,8-tetrahydronaphthalene-2-yl)pyrimidine-2,4-diamine] | > 100 | – | – |
| 10 to 100 | 10 to 100 | > 100 | 10 to 100 | – | COc1cc2c(cc1Nc1ncc(Cl)c(Nc3ccccc3S(=O)(=O)C(C)C)n1)CC/C(=N\N1CCOCC1)C2(C)C [Example 15, (E)-5-chloro-N4-(2-(isopropylsulfonyl)phenyl)-N2-(3-methoxy-5,5-dimethyl-6-(morpholinoimino)-5,6,7,8-tetrahydronaphthalene-2-yl)pyrimidine-2,4-diamine] | 10 to 100 | – | – |
| > 100 | – | > 100 | 10 to 100 | – | COc1cc2c(cc1Nc1ncc(Cl)c(Nc3ccccc3S(=O)(=O)C(C)C)n1)C(C)(C)/C(=N/NC(C)=O)CC2 [Example 20, (E)-N-(7-(5-chloro-4-(2-(isopropylsulfonyl)phenylamino)pyrimidine-2-ylamino)-6-methoxy-1,1-dimethyl-3,4-dihydronaphthalene-2(1H)-yladene)acetohydrazide] | > 100 | – | – |
| > 100 | – | > 100 | 10 to 100 | – | COc1cc2c(cc1Nc1ncc(Cl)c(Nc3ccccc3S(=O)(=O)C(C)C)n1)C(C)(C)/C(=N/N1CCN(C)CC1)CC2 [Example 19, (E)-5-chloro-N4-(2-(isopropylsulfonyl)phenyl)-N2-(3-methoxy-8,8-dimethyl-7-(4-methylpiperazine-1-ylimino)-5,6,7,8-tetrahydronaphthalene-2-yl)pyrimidine-2,4-diamine] | > 100 | – | – |
| > 100 | – | > 100 | < 10 | ≤ 10 | COc1cc2c(cc1Nc1ncc(Cl)c(Nc3ccccc3S(=O)(=O)C(C)C)n1)C(C)(C)/C(=N/NC(N)=O)CC2 [Example 21, (E)-2-(7-(5-chloro-4-(2-(isopropylsulfonyl)phenylamino)pyrimidine-2-ylamino)-6-methoxy-1,1-dimethyl-3,4-dihydronaphthalene-2(1H)-yladene)hydragencarboxamide] | 10 to 100 | – | – |
| > 100 | – | > 100 | – | – | COc1cc2c(cc1Nc1ncc(Cl)c(Nc3ccccc3S(=O)(=O)C(C)C)n1)CCC(NC(=N)N)C2(C)C (stereo not shown) [Example 31] | < 10 | – | – |
| > 100 | – | > 100 | > 100 | – | COc1cc2c(cc1Nc1ncc(Cl)c(Nc3ccccc3S(=O)(=O)C(C)C)n1)CC/C(=N\NC(=O)OC(C)(C)C)C2(C)C [Example 12, (E)-tert-but 2-(6-(5-chloro-4-(2-(isopropylsulfonyl)phenylamino)pyrimidine-2-ylamino)-7-methoxy-1,1-dimethyl-3,4-dihydronaphthalene-2(1H)-yladene)hydrazinecarboxylate] | – | – | – |
| 10 to 100 | 10 to 100 | – | – | – | COc1cc2c(cc1Nc1ncc(Cl)c(Nc3ccccc3S(=O)(=O)C(C)C)n1)CCC(N1CCNCC1)C2 (stereo not shown) [Example 2, 5-chloro-N4-(2-(isopropylsulfonyl)phenyl)-N2-(3-methoxy-6-(piperazine-1-yl)-5,6,7,8-tetrahydronaphthalene-2-yl)pyrimidine-2,4-diamine] | < 10 | ≤ 10 | – |
| > 100 | – | > 100 | 10 to 100 | – | COc1cc2c(cc1Nc1ncc(Cl)c(Nc3ccccc3S(=O)(=O)C(C)C)n1)CC/C(=N\NC(C)=O)C2(C)C [Example 9, (E)-N-(6-(5-chloro-4-(2-(isopropylsulfonyl)phenylamino)pyrimidine-2-ylamino)-7-methoxy-1,1-dimethyl-3,4-dihydronaphthalene-2(1H)-yladene)acetohydrazide] | 10 to 100 | – | – |
| 10 to 100 | – | > 100 | – | – | COc1cc2c(cc1Nc1ncc(Cl)c(Nc3ccccc3S(=O)(=O)C(C)C)n1)CCC(NC(C)=N)C2(C)C (stereo not shown) [Example 30] | < 10 | – | – |
| > 100 | – | – | – | – | COc1cc2c(cc1Nc1ncc(Cl)c(Nc3ccccc3S(=O)(=O)C(C)C)n1)C(C)(C)C(=O)CC2 [Example 6, 7-(5-chloro-4-(2-(isopropylsulfonyl)phenylamino)pyrimidine-2-ylamino)-6-methoxy-1,1-dimethyl-3,4-dihydronaphthalene-2(1H)-one] | – | – | – |
| 10 to 100 | – | > 100 | – | – | COc1cc2c(cc1Nc1ncc(Cl)c(Nc3ccccc3S(=O)(=O)C(C)C)n1)CCC(NC=N)C2(C)C (stereo not shown) [Example 29, N-(6-((5-chloro-4-((2-(isopropylsulfonyl)phenyl)amino)pyridine-2-yl)amino)-7-methoxy-1,1-dimethyl-1,2,3,4-tetrahydronaphthalene-2yl)formimideamide] | < 10 | – | – |
| > 100 | – | > 100 | > 100 | – | COc1cc2c(cc1Nc1ncc(Cl)c(Nc3ccccc3S(=O)(=O)C(C)C)n1)CC/C(=N\O)C2(C)C [Example 8, (E)-6-(5-chloro-4-(2-(isopropylsulfonyl)phenylamino)pyrimidine-2-ylamino)-7-methoxy-1,1-dimethyl-3,4-dihydronaphthalene-2(1H)-one oxime] | – | – | – |
| 10 to 100 | 10 to 100 | 10 to 100 | < 10 | ≤ 10 | COc1cc2c(cc1Nc1ncc(Cl)c(Nc3ccccc3S(=O)(=O)C(C)C)n1)CCC(NC(=O)CN(C)C)C2(C)C (stereo not shown) [Example 27, N-(6-(5-chloro-4-(2-(isopropylsulfonyl)phenylamino)pyrimidine-2-ylamino)-7-methoxy-1,1-dimethyl-1,2,3,4-tetrahydronaphthalene-2-yl)-2-(dimethylamino)acetamide] | < 10 | ≤ 10 | – |

| SMILES | IC50 [1, 3] [nM] | IC50 [1, 4] [nM] | GI50 (Ba/F3 EML4-ALK L1196M) [nM] | IC50 (ALK enzyme; HTRF, read-out: ALK) [nM] | IC50 (ALK enzyme; [6]) [nM] | IC50 [2, 5] [nM] | IC50 [2, 7] [nM] | IC50 ([2]; 72 h, read-out: ALK L1196M) [nM] |
| --- | --- | --- | --- | --- | --- | --- | --- | --- |
| COc1cc2c(cc1Nc1ncc(Cl)c(Nc3ccccc3S(=O)(=O)C(C)C)n1)C(C)(C)C(N)CC2 (stereo not shown) [Example 23, N2-(7-amino-3-methoxy-8,8-dimethyl-5,6,7,8-tetrahydronaphthalene-2-yl)-5-chloro-N4-(2-(isopropylsulfonyl)phenyl)pyrimidine-2,4-diamine] | > 100 | – | > 100 | 10 to 100 | – | – | – | 10 to 100 |
| COc1cc2c(cc1Nc1ncc(Cl)c(Nc3ccccc3S(=O)(=O)C(C)C)n1)C(=O)C(N1CCOCC1)CC2 (stereo not shown) [Example 3, 7-(5-chloro-4-(2-(isopropylsulfonyl)phenylamino)pyrimidine-2-ylamino)6-methoxy-2-morpholino-3,4-dihydronaphthalene-1(2H)-one] | > 100 | – | > 100 | 10 to 100 | – | – | – | > 100 |

From US10369149B2, “4-(2-amino-tetrahydronaphthalenyl)pyrimidine derivative, preparation method therefor, and pharmaceutical composition for preventing or treating cancer, containing same as active ingredient” (KOREA RESEARCH INSTITUTE OF CHEMICAL TECHNOLOGY, priority 2015, dated 2019)
